Test results published in patent US20220411782A1, “PHAGE COMPOSITIONS COMPRISING CRISPR-CAS SYSTEMS AND METHODS OF USE THEREOF” (priority 2019, published 2022).
Structures can show the parent of a compound that is named as a salt.

Tested on: E. coli strain LFP 527
Experiment: Mouse UTI model, pooled CFU results of Examples 7 and 8 (Example 9)
Type: in vivo, Escherichia coli in mice (Mus musculus)
Conditions: for # samples <LOD / Mean log CFU/g: ciprofloxacin IV 5 mg/kg; for Delta from LR: ciprofloxacin IV compared with intravenous LR
Method: The crPhage cocktail was a mixture of phages p0033L-10 (ATCC No. PTA-126316), p004k-5 (ATCC No. PTA-126319), and p0071-16 (ATCC No. PTA-126320) at concentrations of 2×10^11 plaque forming units (PFU)/mL/phage (“high”), 2×10^9 PFU/mL/phage (“medium”), or 2×10^7 PFU/mL/phage (“low”). A 50 μl dose thus provided 1×10^10 PFU/phage (“high”), 1×10^8 PFU/phage (“medium”), or 1×10^6 PFU/phage (“low”). Lactated Ringer's (LR) solution served as a negative control and ciprofloxacin (Cipro) served as a positive control.
Female C3H/HeN mice were infected with E. coli strain LFP 527 via intraurethral (IU) instillation. Beginning 48 hours after infection, a test article of phage cocktail containing p0033L-10, p004k-5, and p0071-16 was administered at time zero and every 12 hours for 48 hours (for a total of 5 doses). Phage cocktail with a range of phage concentrations (Table 16) or vehicle was delivered either intravenously (IV) or by IU instillation into the bladder. The phage cocktails were prepared using LR.

`O=C(O)c1cn(C2CC2)c2cc(N3CCNCC3)c(F)cc2c1=O` [ciprofloxacin, Ciprofloxacin hydrochloride] was tested, and the “# samples <LOD” value (Bladder, 54 hours) was 0, the “Mean log CFU/g” value (Bladder, 54 hours) was 4.96 log CFU/g and the “Delta from LR” value (Bladder, 54 hours) was −1.55 (n.s.) log CFU/g. For the same molecule, the “# samples <LOD” value (Bladder, 102 hours) was 1, the “Mean log CFU/g” value (Bladder, 102 hours) was 3.16 log CFU/g and the “Delta from LR” value (Bladder, 102 hours) was −2.23 (p = 0.0033) log CFU/g. The “# samples <LOD” value (Kidney, 54 hours) was 0, the “Mean log CFU/g” value (Kidney, 54 hours) was 3.47 log CFU/g and the “Delta from LR” value (Kidney, 54 hours) was −1.66 (n.s.) log CFU/g. The “# samples <LOD” value (Kidney, 102 hours) was 3, the “Mean log CFU/g” value (Kidney, 102 hours) was 2.03 log CFU/g and the “Delta from LR” value (Kidney, 102 hours) was −3.11 (p <0.0001) log CFU/g.
